In US12473551B2, “Small RNA-based drug, preparation and use thereof in prophylaxis and/or treatment of cardiomyopathy” (SOUTHWEST MEDICAL UNIVERSITY, priority 2023, dated 2025):
Entries after “also recorded” stand apart in the source; their conditions may differ.

What was measured:
db/db mice = experiment: Cardiac function of db/db mice after AAV9-DICAR-JP / AAV9-DICAR-JP45 tail vein injection; format: in vivo, mouse; conditions: for E′/a value: db/db mice 1.14, DICAR-JP p<0.05, DICAR-JP45 no statistical significance
Text: In the present disclosure, Shanghai Jikai Gene Medical Technology Co., Ltd. was commissioned to construct AAV9-DICAR-JP and AAV9-DICAR-JP45 viruses based on the sequences shown in SEQ ID NOS: 12 and 10, including CMV bGlobin EGFP-MCS-WPRE hGH polyA as a viral plasmid construction skeleton element sequence, a vector with the number GV412, and NheI and Hind III as cloning sites; the construction of microRNA up involves extending the precursor sequence of microRNA approximately 100 bp each upstream and downstream of the genome, ensuring the splicing efficiency of microRNA.
The mice were divided into db/m+AAV9-GFP (mock control, 5×10^11 vg), db/db+AAV9-GFP (5×10^11 vg), db/db+AAV9-DICAR-JP (5×10^11 vg), db/db+AAV9-DICAR-JP45 (5×10^11 vg), and db/db+dapagliflozin (DAPA, 1.5 mg/kg/d) groups. AAV9 viruses were injected into the tail vein of the mice at the age of 4 months. The mice in the db/db group were administered by gastric gavage with DAPA at the age of 5 months, and the mice in the db/m group were controls without gastric gavage of DAPA. The changes of cardiac function were evaluated by small animal echocardiography at the age of 5, 6 and 7 months, respectively, cardiac remodeling was evaluated by Masson staining, and myocardial hypertrophy was evaluated by wheat germ agglutinin (WGA) staining.

[1] = system: AC16 cardiomyocytes treated with AGEs; experiment: Pharmacodynamics: CCK8 EC50 against AGEs-induced cardiomyocyte injury; format: cell-based, human; conditions: for protective effect over concentration gradient (relative survival of cardiomyocytes): 1, 10, 20, 30, 40, 50 nM + AGEs 200 μg/mL, 24 h; for EC50: 1-50 nM, 24 h + AGEs 200 μg/mL, CCK8, fitting curve, read-out: half-maximal effect concentration (EC50)
Procedure: The cell viability was detected by CCK8 assay after 24 h of cell treatment. The absorbance was measured at 450 nm using a microplate reader to calculate the half-maximal effect concentration (EC50), respectively. EC50 was calculated according to the following formula:
[formula] where the blank refers to the serum-free DMEM.

NACα protein = NACα protein (Homo sapiens, UniProt Q13765); experiment: Localized surface plasmon resonance (SPR) binding to NACα protein; conditions: DEPC-treated water, 25° C.; for Kd: ratio Koff/Kon
Text: The affinity of DICAR-JP45 and DICAR-JP for binding to NACα protein was compared using localized surface plasmon resonance (SPR) technology (Wuhan Yangene Biological Technology Co., Ltd.).
Among them, the dissociation coefficient Koff is used to characterize the constant of the dissociation velocity of DICAR-JP45 and NACα protein, the binding coefficient Kon is used to characterize the constant of the binding velocity of DICAR-JP45 and NACα protein, and the affinity constant KD is the ratio of Koff/Kon, indicating the equilibrium dissociation constant between DICAR-JP45 and NACα protein.

GSDMD = experiment: Western blot of pyroptosis-related protein GSDMD in AGEs-treated AC16 cells; format: cell-based, human; conditions: 40 nM, 24 h + AGEs 200 μg/mL, β-actin reference
Procedure: (§1) The DICAR-JP45 (40 nM) and DICAR-JP sequences were transfected into AC16 cell model for 24 h, respectively. The serum-free medium was replaced for starvation for 2 h, followed by treatment with AGEs (200 μg/mL) for 24 h, respectively. After the cells were treated, the expressions of pyroptosis-related proteins, GSDMD and apoptosis associated speck-like protein containing a CARD (ASC), were detected by Western blot (WB). The internal reference protein was β-actin. The WB was conducted according to the following steps.
(§2) The cells were rinsed twice with PBS, protein lysate (100 μL/well) was added, and the cells were lysed on ice for 30 min. The lysate was collected and centrifuged at 12000 rpm for 30 min at 4° C. After centrifugation, the supernatant protein was collected. The protein sample was mixed with the protein loading buffer at a 4:1 ratio and heated in a metal bath at 95° C. for 10 min, and the sample was stored at 4° C. […] Signals were detected by using enhanced chemiluminescent reagent, and the Western blot bands were quantitatively analyzed by Image J software. […]

ASC = experiment: Western blot of pyroptosis-related protein ASC in AGEs-treated AC16 cells; format: cell-based, human; conditions: 40 nM, 24 h + AGEs 200 μg/mL, β-actin reference
Procedure: as §1, §2

[2] = system: AC16 human cardiomyocytes treated with AGEs; experiment: CCK8 cell viability screening of candidate sequences in AGEs-treated cardiomyocytes; format: cell-based; conditions: for protective effect on cardiomyocytes compared with DICAR-JP / relative cell viability / protective effect at around 48 h: 20 nM, CCK8; for protective effect on cardiomyocytes compared with DICAR-JP: 24 h transfection; for protective effect on cardiomyocytes compared with DICAR-JP / relative cell viability: AGEs 200 μg/mL for 24 h; for protective effect at around 48 h: AGEs 200 μg/mL for 48 h
Procedure: In this example, CCK8 assay was used to evaluate the protective activity of the candidate sequences against cardiomyocytes treated with advanced glycation end products (AGEs, purchased from Bioss®, Cat #bs-1158P), so as to select a small RNA with a better protective effect on cardiomyocytes. The method included the following steps:
Cell culture: AC16 human cardiomyocytes (purchased from Guangzhou Jennio Biotech Co., Ltd., derived from ATCC) were cultured in DMEM (High Glucose) Complete Medium (supplemented with 10% fetal bovine serum (FBS) and 1% […]) in a 5% CO2, 37° C. incubator.
Grouping: Control, AGEs (200 μg/mL, 24 h/48 h), negative control (NC, 20 nM, 24 h), DICAR-JP4 (20 nM, 24 h), DICAR-JP6 (20 nM, 24 h), DICAR-JP18 (20 nM, 24 h), DICAR-JP23 (20 nM, 24 h), DICAR-JP27 (20 nM, 24 h), DICAR-JP28 (20 nM, 24 h), DICAR-JP29 (20 nM, 24 h), DICAR-JP32 (20 nM, 24 h), DICAR-JP40 (20 nM, 24 h), DICAR-JP45 (20 nM, 24 h), and DICAR-JP (20 nM, 24 h).
Nucleic acid transfection method: Two microliters (μL) each of Lipofectamine® RNAi MAX (Thermo Fisher Scientific RNi MAX, Cat #13778-500) and DICAR-JPN were diluted with Opti-MEM® Medium (50 μL), respectively, and then the two reagents were mixed well and incubated at room temperature for 5 min. The Lipofectamine® RNAi MAX-DICAR-JPN complex was added to the AC16 cell supernatant (50 μL/well, 24 h) on a 24-well plate. Afterward, the complete medium was replaced with serum-free DMEM, and the cell cycle was synchronized for 2 h. AC16 cells were treated with 200 μg/mL AGEs for 24 and 48 h, respectively, and their viability was evaluated by CCK8 assay.
Evaluation of cell viability by CCK8 assay: The cells were washed twice with phosphate-buffered saline (PBS) in the dark, and serum-free DMEM supplemented with CCK8 (CCK8: DMEM=1:9) was added; the well plate was placed back into the cell culture incubator for further incubation for 1 h, and the absorbance was measured at 450 nm using a microplate reader. The cell viability (%) was calculated according to the following formula: Cell viability=[(A450nmExperiment−A450nmBlank)]/[(A450nmControl−A450nmBlank)]×100%, where the blank refers to the serum-free DMEM.

[3] = AAV9 tail vein, echocardiography

Sequence | E′/a value (db/db mice; AAV9 5×10^11 vg tail vein) | cardiomyocyte hypertrophy (WGA staining) (db/db mice; AAV9 tail vein) | protective effect over concentration gradient (relative survival of cardiomyocytes) [1] | EC50 [1] [nM] | Koff (NACα protein) [s⁻¹] | Kon (NACα protein) [M⁻¹ s⁻¹] | Kd (NACα protein) [nM] | improvement in mouse cardiac function (db/db mice; 3 months after tail vein injection at age 4 months) | ejection fraction (EF) value (db/db mice; AAV9 5×10^11 vg tail vein, 3 months after injection, db/db mice 57.5%) [%] | FS value (db/db mice; [3]) | LVVs value (db/db mice; [3]) | suppression of expression of GSDMD (GSDMD) | suppression of expression of ASC (ASC) | efficacy duration [2] | protective effect on cardiomyocytes compared with DICAR-JP [2] | relative cell viability [2] | protective effect at around 48 h [2]
CAACCUCCGGGGCCACAAUAGCGAGAUUUGUAAGACUCCAGGGCCUCCCAG (chemistry not given here) [DICAR-JP, reference compound] | 1.73 | effectively inhibit cardiomyocyte hypertrophy | increase within the concentration gradient range | 26.2 | 0.000866 | 22600 | 38.3 |  |  |  |  |  |  |  |  |  | 
CAACCUCCGGGGCCACAAUAGCGAGAUUUGUAAGACUCUAGGGCCUCCCAG (chemistry not given here) [DICAR-JP45] | 1.45 | no significant effect on improving myocardial hypertrophy | increase within the concentration gradient range | 17.9 | 0.000152 | 25000 | 6.09 | a certain effect on improving cardiac function | 71.07 | improve | improve | more significantly compared with DICAR-JP | more significantly compared with DICAR-JP | over 24 h | significant protective effect | higher cardiomyocyte viability; also recorded: close to that of the untreated group | disappeared
CAACCUCCGGGGCCACAAUAGCGAGAUUUGUAAGAUUCCAGGGCCUCCCAG (listed as RNA, chemistry not given here) [DICAR-JP40] |  |  |  |  |  |  |  |  |  |  |  |  |  |  | significant protective effect | significantly higher than that of the model group | disappeared
